The term LD50 denotes the dose expected to kill half of the subjects tested. Read a high LD50 as lower toxicity. One may read the MIC as the smallest concentration in the dilution series that meets the test's criterion for growth inhibition. A lower MIC goes with greater potency.

From patent publication US4202877A, “Antidermatomycotic agent” (Kureha Kagaku Kogyo Kabushiki Kaisha, priority 1977, dated 1980) come the findings set out here.

Data set [1] in a line: Acute toxicity (LD50, mortality one week after administration, Litchfield-Wilcoxon; autopsy after oral administration). Type of data set: in vivo, ICR-JCL female mice. As to conditions: for LD50 at 168 h: mouse, in vivo, mice, 10 tested, one week after administration. An excerpt:
Ortho-methoxycinnamaldehyde was suspended in a mixed sulution of 1 part of Tween (mfd. Atlas Powder Co.) and 2 parts of a physiological salt solution. Commercially available ICR-JCL female mice (with a body weight of 22±1 g) were used for the toxicity tests, in which the mice were divided into groups, one being subjected to the percutaneous administration (p.c.) and the other group subjected to the oral administration (p.o.) and, one week after the administration their mortality was observed.

A short description of a further data set: Solubility. Type of data set: physicochemical.
Data set [2] can be described thus: Subacute toxicity, daily administration over 3 months. Type of data set: in vivo, mice. As to conditions: every day over 3 months, oral 100 mg/kg and percutaneous 250 mg/kg, respectively. The method, then: Further, in order to determine the subacute toxicity of the present substance, it was administered to mice every day over 3 months via an oral and a percutaneous routes using the dosage of 100 mg/kg and 250 mg/kg, respectively.

The test system of a further data set is Aspergillus niger. As to the kind of experiment: Antimicrobial spectrum, minimum growth inhibiting concentration (MIC). As to conditions: 72 h, Sabouraud's medium pH 5 to 6, 25° C., 3 days. The format is cell-based. The method, then: (§1) The antimicrobial spectrum was determined using Sabouraud's medium. Three hundred milligrams of o-methoxycinnamaldehyde was dissolved in 15 ml of methanol and diluted to give solutions with different concentrations. An aliquot of 0.1 ml of the solutions was charged into a test tube. Each 10 ml of the sterilized Sabouraud's medium of pH of 5 to 6 was charged into each of the above-mentioned test tube and well mixed with the solution of the present substance. A variety of microbial species were provided and each species was suspended in a physiological salt solution in an amount of 10^5 /ml.

The test system of data set [3] is Trichophyton mentagrophytes. Described as above. The format is cell-based. Particulars: 72 h, Sabouraud's medium pH 5 to 6, 25° C., 3 days. Here is the method: as §1
The test system of the next data set is Candida albicans. The description is as above. The format is cell-based. As to conditions: 72 h, Sabouraud's medium pH 5 to 6, 25° C., 3 days. Here is the method: as §1
The next data set relates to Microsporum gypseum. Described as above. As to conditions: Nannizzia gypsea, 72 h; Sabouraud's medium pH 5 to 6, 25° C., 3 days. The format is cell-based. Here is the method: as §1
A further data set concerns Trichophyton rubrum. The description is as above. Type of data set: cell-based. Particulars: 72 h, Sabouraud's medium pH 5 to 6, 25° C., 3 days. The method, then: as §1
The subject of a further data set is Escherichia coli. Described as above. Type of data set: cell-based. Particulars: 72 h, Sabouraud's medium pH 5 to 6, 25° C., 3 days. The method, then:
as §1

In another data set the test system is Microsporum canis. The data set is described as above. Particulars: 72 h, Sabouraud's medium pH 5 to 6, 25° C., 3 days. The format is cell-based. The method, then: as §1
For the next data set, the system named is Cryptococcus neoformans. The data set is described as above. Type of data set: cell-based. As to conditions: 72 h, Sabouraud's medium pH 5 to 6, 25° C., 3 days. Here is the method:
as §1

The test system of a further data set is Staphylococcus aureus. The data set is described as above. Type of data set: cell-based. Particulars: 72 h, Sabouraud's medium pH 5 to 6, 25° C., 3 days. Here is the method:
as §1

The test system of the next data set is Aspergillus fumigatus. Described as above. Type of data set: cell-based. Particulars: 72 h, Sabouraud's medium pH 5 to 6, 25° C., 3 days. Here is the method:
as §1

Data set [4] in a line: Antimicrobial activity of synthesized versus extracted substance. As to conditions: synthesis method vs extraction method.
Where [5] appears, read: one week after oral administration.

≈ marks a conversion by molar mass, not a printed value.

For `COc1ccccc1C=CC=O` [o-methoxycinnamaldehyde], the LD50 at 168 h in data set [1] (topical or ocular, percutaneous (p.c.)) is 8670 mg/kg; in data set [1] (oral (p.o.)), 4430 mg/kg. The “Autopsy findings in appearance and visceral observation” value in [1] (setting [5]) was “no specific abnormal finding was obtained in appearance and also in visceral observation”. Besides, the Toxic symptom result in [1] (setting [5]) is “no specific toxic sympton was observed”. In addition, the “Solubility in methanol, ethanol, acetone, benzene and chloroform” value in the data set “Solubility” (methanol, ethanol, acetone, benzene and chloroform) is “Soluble in methanol, ethanol, acetone, benzene and chloroform”. Besides, in the data set “Solubility” (water), the Solubility in water result is “insoluble in water”. The “Death or abnormal symptom (subacute toxicity)” value in data set [2] is “neither death nor abnormal symptom was observed”. The MIC against Aspergillus niger stood at 200 µg/mL (≈ 1230 µM); in data set [3], 12.5 µg/mL (≈ 77.1 µM); in the data set on Candida albicans, 50 µg/mL (≈ 308 µM); against Microsporum gypseum, 25 µg/mL (≈ 154 µM); with Trichophyton rubrum it was 12.5 µg/mL (≈ 77.1 µM); in the data set on Escherichia coli, 60 µg/mL (≈ 370 µM). The MIC is 6.25 µg/mL (≈ 38.5 µM) with Microsporum canis, 12.5 µg/mL (≈ 77.1 µM) with Cryptococcus neoformans, 50 µg/mL (≈ 308 µM) against Staphylococcus aureus and 100 µg/mL (≈ 617 µM) in the data set with Aspergillus fumigatus. Besides, the “Antimicrobial activity of substance obtained by synthesis compared with that obtained by extraction” value in data set [4] is “identical in physical properties and antimicrobial activity to that obtained from the extraction method”.
